# Data reported in patent US10633389B2, “CARM1 inhibitors and uses thereof” (Epizyme, Inc., priority 2013, dated 2020).
# Tested on: asymmetric di-methyl PABP1 in RKO cells
# Test: RKO methylation assay, In Cell Western (ICW) for asymmetric di-methyl PABP1
# Assay type: cell-based
# Details: Homo sapiens, RKO, Cellular potencies, ICW PABP1me2a
# From the text: RKO adherent cells were purchased from ATCC (American Type Culture Collection), Manassas, Va., USA. DMEM/Glutamax medium, penicillin-streptomycin, heat inactivated fetal bovine serum, 0.05% trypsin and D-PBS were purchased from Life Technologies, Grand Island, N.Y., USA. Odyssey blocking buffer, 800 CW goat anti-rabbit IgG (H+L) antibody, and Licor Odyssey infrared scanner were purchased from Licor Biosciences, Lincoln, Nebr., USA. Asymmetric di-methyl PABP1 antibody was purchased from Cell Signaling Technology, Danvers, Mass., USA. Methanol was purchased from VWR, Franklin, Mass., USA. 10% Tween 20 was purchased from KPL, Inc., Gaithersburg, Md., USA. Paraformaldehyde (PFA) was purchased from EM Sciences. DRAQ5 was purchased from Biostatus Limited, Leicestershire, UK.
# RKO adherent cells were maintained in growth medium (DMEM/Glutamax medium supplemented with 10% v/v heat inactivated fetal bovine serum and 100 units/mL penicillin-streptomycin) and cultured at 37° C. under 5% CO2.
# Cell treatment, In Cell Western (ICW) for detection of asymmetric di-methyl PABP1 and DNA content: RKO cells were seeded in assay medium at a concentration of 30,000 cells per mL to a poly-D-lysine coated 384 well culture plate (BD Biosciences 356697) with 50 VL per well. Compound (100 nL) from a 96-well source plate was added directly to 384 well cell plate. Plates were incubated at 37° C., 5% CO2 for 48 hours. After two days of incubation, plates were brought to room temperature outside of the incubator for ten minutes and blotted on paper towels to remove cell media. Cells were fixed for 20 minutes at room temperature by adding 50 ul of 8% PFA followed by aspiration of supernatant with the Biotek EL406 plate washer. Cells were then permeabilized by addition of 50 μL of ice cold 100% methanol directly to each well and incubated for 30 min at room temperature. After 30 min, plates were transferred to a Biotek EL406 plate washer and washed 2 times with 100 μL per well of wash buffer (1×PBS). Next 60 μL per well of Odyssey blocking buffer (Odyssey Buffer with 0.1% Tween 20 (v/v)) were added to each plate and incubated 1 hour at room temperature. Blocking buffer was removed and 20 μL per well of primary antibody was added (asymmetric-methyl PABP1) diluted 1:400 in Odyssey buffer with 0.1% Tween 20 (v/v)) and plates were incubated overnight (16 hours) at 4° C. Plates were washed 5 times with 100 μL per well of wash buffer. Next 20 μL per well of secondary antibody was added (1:800 800 CW goat anti-rabbit IgG (H+L) antibody, 1:2000 DRAQ5 in Odyssey buffer with 0.1% Tween 20 (v/v)) and incubated for 1 hour at room temperature. The plates were washed 5 times with 100 μL per well wash buffer then 2 times with 100 μL per well of water. Plates were allowed to dry at room temperature then imaged on the Licor Odyssey machine which measures integrated intensity at 700 nm and 800 nm wavelengths. Both 700 and 800 channels were scanned.
# First, the ratio for each well was determined by:
# Each plate included fourteen control wells of DMSO only treatment (minimum inhibition) as well as fourteen control wells for maximum inhibition treated with 20 μM of a reference compound. The average of the ratio values for each control type was calculated and used to determine the percent […] for each test well in the plate. Reference compound was serially diluted three-fold in DMSO for a total of nine test concentrations, beginning at 20 μM.
# Percent inhibition was determined and IC50 curves were generated using triplicate wells per concentration of compound. […]
row,SMILES,IC50 [µM]
1,CNCC(O)COc1cccc(-c2nc(-c3c[nH]c4ncncc34)cc(N(C)C3CCOCC3)n2)c1 (centres unmarked) [Example 504-1a],< 5
2,CNCC(O)COc1cc(Cl)cc(-c2nc(-c3c(C)noc3C)cc(-c3c(C)noc3C)n2)c1 (centres unmarked) [Example 4-1a],10 to 20
3,CNCC(O)COc1cccc(-c2nc(NC3CCOC3)c(C)c(N3CCN4C(=O)OC[C@@H]4C3)n2)c1 (some centres unmarked) [Example 454-1a],5 to 10
4,CNC[C@@H](O)COc1cccc(-c2nc(-c3c[nH]c4ncncc34)c(C)c(N(C)C3CCOCC3)n2)c1 [Example 526-1a],5 to 10
5,CNCC(O)COc1cccc(-c2nc(N3CCN(C(=O)OC)[C@@H](C)C3)cc(N(C)C3CCOCC3)n2)c1 (some centres unmarked) [Example 581-1a],10 to 20
6,CNCC(O)COc1cccc(-c2nc(NCC3(N4CC(F)(F)C4)CCOCC3)c(C)c(-c3c(C)noc3C)n2)c1 (centres unmarked) [Example 302-1a],< 5
7,CNC[C@@H](O)COc1ccc(Cl)c(-c2nc(-c3c(C)noc3C)c(C)c(N3CCC4(CC4)C3)n2)c1 [Example 234-3],< 5
8,CNC[C@@H](O)COc1ccc(Cl)c(-c2nc(-c3c(C)noc3C)c(C)c(N3CCc4nn(C)cc4C3)n2)c1 [Example 122-3],< 5
9,CCOC(=O)N1CCN(c2nc(-c3cccc(OCC(O)CNC)c3)nc(N[C@@H]3CCOC3)c2C)C[C@H]1C (some centres unmarked) [Example 470-1a],< 5
10,CNCC(O)COc1cccc(-c2nc(-c3c(C)noc3C)c(C)c(N3CCN(C(=O)C4CCOCC4)CC3)n2)c1 (centres unmarked) [Example 108-1a],< 5
11,CCOC(=O)N1CC[C@H](Nc2nc(-c3cc(OC[C@H](O)CNC)ccc3Cl)nc(-c3c(C)noc3C)c2C)C1 [Example 150-3],< 5
12,CNC[C@@H](O)COc1cccc(-c2nc(-c3c(C)noc3C)c(C)c(-c3cn(S(C)(=O)=O)c4ncncc34)n2)c1 [Example 156-1a],5 to 10
13,CCO[C@@H]1CCC[C@H]1N(CC)c1nc(-c2cc(OC[C@H](O)CNC)ccc2Cl)nc(-c2c(C)noc2C)c1C [Example 241-3],< 5
14,CNCC(O)COc1cccc(-c2nc(-c3cnc4ccnn4c3)cc(N(C)C3CCOCC3)n2)c1 (centres unmarked) [Example 564-1a],10 to 20
15,CNCC(O)COc1cccc(-c2nc(N3CCN(CCF)[C@@H](C)C3)cc(N(C)C3CCOCC3)n2)c1 (some centres unmarked) [Example 578-1a],10 to 20
16,CCS(=O)(=O)N1CC(Nc2nc(-c3cccc(OCC(O)CNC)c3)nc(-c3c(C)noc3C)c2C)C1 (centres unmarked) [Example 273-1a],10 to 20
17,CNC[C@@H](O)COc1cccc(-c2nc(NC3CCOCC3)cc(-c3c(C)noc3C)n2)c1 [Example 18-1a],< 5
18,CNC[C@@H](O)COc1ccc(Cl)c(-c2nc(NC3CC4(C3)CN(C(=O)OC)C4)c(C)c(-c3c(C)noc3C)n2)c1 [Example 146-3],< 5
19,CNC[C@H](O)COc1ccc(Cl)c(-c2nc(N[C@H]3C[C@@H](OC)C3)c(C)c(-c3c(C)noc3C)n2)c1 [Example 54-3],< 5
20,CNC[C@@H](O)COc1ccc(F)c(-c2nc(-c3c(C)noc3C)cc(N3CC4(CCOCC4)C3)n2)c1 [Example 277-3],< 5
21,CNC[C@@H](O)COc1ccc(Cl)c(-c2nc(N[C@H]3CN(C4CC4)C[C@@H]3F)c(C)c(-c3c(C)noc3C)n2)c1 [Example 203-3],< 5
22,CNC[C@@H](O)COc1ccc(Cl)c(-c2nc(-c3c(C)noc3C)c(C)c(N3CCC3C)n2)c1 (some centres unmarked) [Example 207-3],< 5
23,CNCC(O)COc1cccc(-c2nc(OCC3CCN(C(=O)OC)CC3)c(C)c(-c3c(C)noc3C)n2)c1 (centres unmarked) [Example 284-1a],< 5
24,CNC[C@@H](O)COc1ccc(Cl)c(-c2nc(-c3c(C)noc3C)c(C)c(N3Cc4cncnc4C3)n2)c1 [Example 190-3],< 5
25,CNCC(O)COc1cccc(-c2nc(-c3c(C)noc3C)cc(N3CCN(C(C)=O)C4(CC4)C3)n2)c1 (centres unmarked) [Example 70-1a],< 5
26,CNCC(O)COc1cccc(-c2nc(OCC3CCN(C4CC4)CC3)c(C)c(-c3c(C)noc3C)n2)c1 (centres unmarked) [Example 303-1a],< 5
27,CNC[C@H](O)COc1ccc(Cl)c(-c2nc(N[C@H]3CCN(C(=O)OC)[C@H](C)C3)c(C)c(-c3c(C)noc3C)n2)c1 [Example 103-3],< 5

row,SMILES,IC50 [µM]
1,CCOC(=O)N1CCOC[C@H]1CNc1nc(-c2cc(OC[C@@H](O)CNC)ccc2Cl)nc(-c2c(C)noc2C)c1C [Example 24-3],< 5
2,CNC[C@@H](O)COc1ccc(Cl)c(-c2nc(-c3c(C)noc3C)c(C)c(N3Cc4cnc(C(C)C)nc4C3)n2)c1 [Example 264-3],< 5
3,CNCC(O)COc1cccc(-c2nc(NC3(C)CCOCC3)cc(-c3c(C)noc3C)n2)c1 (centres unmarked) [Example 85-1a],< 5
4,CNCC(O)COc1cccc(-c2nc(-c3c(C)noc3C)cc(-c3c(C)noc3C)n2)c1 (centres unmarked) [Example 3-1a],10 to 20
5,CNC[C@@H](O)COc1ccc(Cl)c(-c2nc(N[C@@H]3C[C@@H](C)O[C@@H](C)C3)c(Cl)c(-c3c(C)noc3C)n2)c1 [Example 183-3],< 5
6,CNC[C@@H](O)COc1ccc(Cl)c(-c2nc(-c3c(C)noc3C)c(C)c(N3CCc4ncccc43)n2)c1 [Example 199-3],< 5
7,CNCC(O)COc1cccc(-c2nc(-c3c(C)noc3C)cc(N(C)c3cncnc3)n2)c1 (centres unmarked) [Example 50-1a],< 5
8,CNCC(O)COc1cccc(-c2nc(-c3c(C)noc3C)cc(N(C)c3cnc(C)nc3)n2)c1 (centres unmarked) [Example 61-1a],10 to 20
9,CNCC(O)COc1cccc(-c2nc(C3CCNCC3)cc(N(C)C3CCOCC3)n2)c1 (centres unmarked) [Example 615-1a],10 to 20
10,CNCC(O)COc1cc(Cl)cc(-c2nc(-c3cnc4ccccc4n3)c(C)c(N(C)C3CCOCC3)n2)c1 (centres unmarked) [Example 612-1a],10 to 20
11,CNC[C@@H](O)COc1ccc(Cl)c(-c2nc(OC[C@H]3CCCO3)c(C)c(-c3c(C)noc3C)n2)c1 [Example 116-3],< 5
12,CNC[C@H](O)COc1cccc(-c2nc(NC3CCOCC3)c(C)c(-c3c(C)noc3C)n2)c1 [Example 55-1a],< 5
13,CNCC(O)COc1cccc(-c2nc(N[C@@H]3CCOC3)c(C)c(N3C[C@H]4C[C@@H]3CN4C)n2)c1 (some centres unmarked) [Example 443-1a],10 to 20
14,CNCC(O)COc1cccc(-c2nc(-c3c(C)noc3C)c(C)c(N3CCC[C@@H](NC)C3)n2)c1 (some centres unmarked) [Example 177-1a],5 to 10
15,CNCC(O)COc1cccc(-c2nc(N[C@H]3C[C@H](C(=O)OC)C3)c(C)c(-c3c(C)noc3C)n2)c1 (some centres unmarked) [Example 221-1a],< 5
16,CNCC(O)COc1cccc(-c2nc(C(=O)NCC3CCOCC3)cc(N(C)C3CCOCC3)n2)c1 (centres unmarked) [Example 548-1a],10 to 20
17,CNC[C@@H](O)COc1ccc(Cl)c(-c2nc(N[C@@H]3CCN(C)C[C@@H]3F)c(C)c(-c3c(C)noc3C)n2)c1 [Example 194-3],< 5
18,CNCC(O)COc1cccc(-c2nc(NCC3CCOCC3)c(C)c(-c3c(C)noc3C)n2)c1 (centres unmarked) [Example 88-1a],< 5
19,CNCC(O)COc1ccc(Cl)c(-c2nc(NC3(C)CCOCC3)c(Cl)c(-c3c(C)noc3C)n2)c1 (centres unmarked) [Example 137-1a],< 5
20,CNCC(O)COc1cccc(-c2nc(-c3c(C)noc3C)cc(N3CCN(C(C)=O)[C@@H](C)C3)n2)c1 (some centres unmarked) [Example 38-1a],5 to 10
21,CNCC(O)COc1cccc(-c2nc(NC3CNC3)c(C)c(-c3c(C)noc3C)n2)c1 (centres unmarked) [Example 1-3],≥ 20
22,CNCC(O)COc1cccc(-c2nc(N3CC4(CCNCC4)c4ccccc43)cc(N(C)C3CCOCC3)n2)c1 (centres unmarked) [Example 559-1a],10 to 20
23,CNCC(O)COc1cccc(-c2nc(-c3c(C)noc3C)cc(N3CCNC(C)C3)n2)c1 (centres unmarked) [Example 35-1a],5 to 10
24,CNCC(O)COc1ccc(Cl)c(-c2nc(NC3CC(C)N(C(=O)OC)C(C)C3)c(C)c(-c3c(C)noc3C)n2)c1 (centres unmarked) [Example 46-3],< 5
25,CNCC(O)COc1cccc(-c2nc(N[C@@H]3CCOC3)c(C)c(-c3cncc(C#N)c3)n2)c1 (some centres unmarked) [Example 341-1a],10 to 20
26,CNC[C@@H](O)COc1ccc(Cl)c(-c2nc(-c3c(C)noc3C)c(C)c(N3CC4CC4C3)n2)c1 (some centres unmarked) [Example 235-3],< 5
